We go through one compound from patent US11167006B2 (Shanghai Tianci Life Science Development Co., Ltd., priority 2016, dated 2021).

In the data set the test system is male mice of Kunming strain. Description: Analgesic tolerance test (photothermal tail flick). It is filed as in vivo, mouse. The protocol: The mice were injected with the drug in the lateral ventricle of the mice for six consecutive days or in the subcutaneous of the mice for eight consecutive days, and their analgesic tolerance were detected by photothermal tail flick method, and the pharmacological activity of the compounds of the present invention in analgesic tolerance was further explored.
In male mice of Kunming strain, the drug was injected continuously in the lateral ventricle for six days, once a day, and the effect of continuous injection of drugs on the pain sensation was detected by a photothermal tail flick instrument. The ambient temperature is controlled at 22±1° C., and the experimental animals are free to eat and drink. The test drug was injected into the lateral ventricle of the mouse for 6 consecutive days, 4 μl per injection. The basic tail flick incubation period (3-5 seconds) was measured before the first day of drug injection, and those mice that were too sensitive or dull were discarded. The tail flick incubation period of 5, 10, 15, 20, 30 min after administration on the first and sixth days was recorded in the experiment. To prevent scald on the tail of the mouse, the maximum tail flick incubation period was set as 10 seconds,
In addition, we further studied the tolerance of subcutaneous administration of compound 9 and morphine in the photothermal tail flick test. The ambient temperature is controlled at 22±1° C., and the experimental animals are free to eat and drink. First, the basic tail flick incubation period (3-5 seconds) of the mice was measured before administration, and then compound 9 or morphine was administered subcutaneously for eight consecutive days. The tail flick incubation period of 10, 15 and 20 minutes after daily administration were recorded. To prevent scald on the tail of the mouse, the maximum tail flick incubation period was set as 10 seconds.
The experimental data is expressed by MPE (maximum possible effect), MPE (%)=100×[(pain threshold after administration−basal pain threshold)/(10 seconds−basal pain threshold)]. The analgesic tolerance of the drug was compared using the MPE value at the time of maximum analgesic effect of the drug. MPE data was expressed as mean±standard error (Means±S.E.M.). The difference in the analgesic effect of continuous administration in the lateral ventricle of the mice for six days was statistically analyzed by the paired T test, and the difference in the analgesic effect of subcutaneous continuous administration for eight days was analyzed by One-way analysis of variance (one-way ANOVA's Tukey HSD test) for statistics, and ***P<0.001 indicates a significant difference from the analgesic effect of the drug injected on the first day.

Square brackets hold non-standard residues; d marks the D form. Peptide text beside a SMILES is read from it. NMeF = CN[C@@H](Cc1ccccc1)C(=O)O

Consider `C[C@@H](NC(=O)[C@@H](N)Cc1ccc(O)cc1)C(=O)NCC(=O)N(C)[C@@H](Cc1ccccc1)C(=O)NCC(=O)N1CCC[C@H]1C(=O)N[C@@H](CCC(N)=O)C(=O)N[C@@H](CCCNC(=N)N)C(=O)N[C@@H](Cc1ccccc1)C(N)=O` [Compound 9, Tyr-D-Ala-Gly-NMe-Phe-Gly-Pro-Gln-Arg-Phe-NH2] (H-Y[dA]G[NMeF]GPQRF-NH2), for which the “analgesic tolerance” value (eight consecutive days subcutaneous, 10 mg/kg) is “not significantly different from that of the first day”. Besides, the “analgesia effect compared with morphine” value (tail flick, subcutaneous 10 mg/kg) is on record as “equivalent to that of an equal dose of morphine”.
